According to patent publication US8865910B2 (priority 2010, dated 2014):
Read-outs that look alike come from different tables or passages of the source.

Test system: M. bovis BCG
Test: microbe, parasite or virus in culture
Assay type: cell-based, Mycobacterium bovis BCG
Settings: Mycobacterium tuberculosis variant bovis BCG, BCG, 192 h
[1] = read-out: Antimycobacterial activity % inhibition at 100 μg/ml Aerobic/Active stage
[2] = read-out: Antimycobacterial activity % inhibition at 100 μg/ml Anearobic/Dormant stage

| SMILES | inhibition at 100 µg/mL [1] | inhibition at 100 µg/mL [2] |
| --- | --- | --- |
| CC(C)(C)c1nc(SCc2cn(Cc3ccccc3)nn2)n(Cc2cn(Cc3ccccc3)nn2)n1 [3c, 1-benzyl-4-((1-((1-benzyl-1H-1,2,3-triazol-4-yl)methyl)-3-tert-butyl-1H-1,2,4-triazol-5-ylthio)methyl)-1H-1,2,3-triazole] | 10% | 13% |
| COc1ccc(-c2nc(SCc3cn(Cc4ccccc4)nn3)nn2Cc2cn(Cc3ccccc3)nn2)cc1 [2e, 1-benzyl-4-((1-((1-benzyl-1H-1,2,3-triazol-4-yl)methyl)-5-(4-methoxyphenyl)-1H-1,2,4-triazol-3-ylthio)methyl)-1H-1,2,3-triazole] | 1% | 8% |
| C=CCSc1nc(C(C)(C)C)nn1CC=C [6c, 1-allyl-5-(allylthio)-3-tert-butyl-1H-1,2,4-triazole] | 30% | 33% |
| C=CCSc1nc(C)n(CC=C)n1 [5b, 1-allyl-3-(allylthio)-5-methyl-1H-1,2,4-triazole] | 25% | 15% |
| C=CCSc1nc(-c2ccc([N+](=O)[O-])cc2)n(CC=C)n1 [5d, 1-allyl-3-(allylthio)-5-(4-nitrophenyl)-1H-1,2,4-triazole] | 15% | 18% |
| C#CCSc1nc(C)n(CC=C)n1 [10b, 1-allyl-5-methyl-3-(prop-2ynylthio)-1H-1,2,4-triazole] | 98% | 92% |
| C=CCSc1nc(-c2ccc([N+](=O)[O-])cc2)nn1CC=C [6d, 1-allyl-5-(allylthio)-3-(4-nitrophenyl)-1H-1,2,4-triazole] | 40% | 12% |
| C=CCSc1nc(C)nn1CC=C [6b, 1-allyl-5-(allylthio)-3-methyl-1H-1,2,4-triazole] | 22% | 10% |
| CC(C)(C)c1n[nH]c(SCc2cn(Cc3ccccc3)nn2)n1 [1c] | 3% | 11% |
| C#CCS(=O)(=O)c1nc[nH]n1 [7a, 5-(prop-2-ynylsulfonyl)-1H-1,2,4-triazole] | 42% | 23% |
| C=CCSc1ncn(CC=C)n1 [5a, 1-allyl-3-(allylthio)-1H-1,2,4-triazole] | 58% | 42% |
| C#CCS(=O)(=O)c1nc(C(C)(C)C)n[nH]1 [7c, 3-tert-butyl-5-(prop-2-ynylsulfonyl)-1H-1,2,4-triazole] | 76% | 74% |
| C=CCSc1nc(C)n[nH]1 [4b, 3-(allylthio)-5-methyl-1H-1,2,4-triazole] | 98% | 97% |
| Clc1ccc(-c2nc(SCc3cn(Cc4ccccc4)nn3)nn2Cc2cn(Cc3ccccc3)nn2)cc1 [2f, 1-benzyl-4-((1-((1-benzyl-1H-1,2,3-triazol-4-yl)methyl)-5-(4-chlorophenyl)-1H-1,2,4-triazol-3-ylthio)methyl)-1H-1,2,3-triazole] | 21% | 17% |
| Cc1nc(SCc2cn(Cc3ccccc3)nn2)n(Cc2cn(Cc3ccccc3)nn2)n1 [3b, 1-benzyl-4-((1-((1-benzyl-1H-1,2,3-triazol-4-yl)methyl)-3-methyl-1H-1,2,4-triazol-5-ylthio)methyl)-1H-1,2,3-triazole] | 85% | 76% |
| CC(C)(C)c1nc(SCc2cn(Cc3ccccc3)nn2)nn1Cc1cn(Cc2ccccc2)nn1 [2c, 1-benzyl-4-((1-((1-benzyl-1H-1,2,3-triazol-4-yl)methyl)-5-tert-butyl-1H-1,2,4-triazol-3-ylthio)methyl)-1H-1,2,3-triazole] | 8% | 15% |
| C=CCSc1ncnn1CC=C [6a, 1-allyl-5-(allylthio)-1H-1,2,4-triazole] | 65% | 60% |
| C=CCSc1nc(-c2ccc([N+](=O)[O-])cc2)n[nH]1 [4d, 3-(allylthio)-5-(4-nitrophenyl)-1H-1,2,4-triazole] | 25% | 14% |
| C=CCSc1nc(-c2ccc(Cl)cc2)n(CC=C)n1 [5f, 1-allyl-3-(allylthio)-5-(4-chlorophenyl)-1H-1,2,4-triazole] | 94% | 91% |
| C#CCSc1ncnn1CC=C [9a, 1-allyl-5-(prop-2-ynylthio)-1H-1,2,4-triazole] | 40% | 22% |
| Brc1nc(Br)n(Cc2cn(Cc3ccccc3)nn2)n1 [11d, 1-benzyl-4-((3,5-dibromo-1H-1,2,4-triazol-1-yl)methyl)-1H-1,2,3-triazole] | 2% | 13% |
| C=CCSc1nc(-c2ccc(OC)cc2)n(CC=C)n1 [5e, 1-allyl-3-(allylthio)-5-(4-methoxyphenyl)-1H-1,2,4-triazole] | 89% | 84% |
| C=CCSc1n[nH]c(-c2ccc(OC)cc2)n1 [4e, 3-(allylthio)-5-(4-methoxyphenyl)-1H-1,2,4-triazole] | 94% | 93% |

| SMILES | inhibition at 100 µg/mL [1] | inhibition at 100 µg/mL [2] |
| --- | --- | --- |
| C=CCSc1nc(C(C)(C)C)n(CC=C)n1 [5c, 1-allyl-3-(allylthio)-5-tert-butyl-1H-1,2,4-triazole] | 45% | 36% |
| COc1ccc(-c2nc(SCc3cn(Cc4ccccc4)nn3)n(Cc3cn(Cc4ccccc4)nn3)n2)cc1 [3e, 1-benzyl-4-((1-((1-benzyl-1H-1,2,3-triazol-4-yl)methyl)-3-(4-methoxyphenyl)-1H-1,2,4-triazol-5-ylthio)methyl)-1H-1,2,3-triazole] | 86% | 82% |
| C#CCn1nc(Br)nc1Br [11a, 3,5-dibromo-1-(prop-2-ynyl)-1H-1,2,4-triazole] | 97% | 20% |
| O=[N+]([O-])c1ccc(-c2nc(SCc3cn(Cc4ccccc4)nn3)n(Cc3cn(Cc4ccccc4)nn3)n2)cc1 [3d, 1-benzyl-4-((1-((1-benzyl-1H-1,2,3-triazol-4-yl)methyl)-3-(4-nitrophenyl)-1H-1,2,4-triazol-5-ylthio)methyl)-1H-1,2,3-triazole] | 13% | 11% |
| C#CCS(=O)(=O)c1n[nH]c(-c2ccc(OC)cc2)n1 [7e, 3-(4-methoxyphenyl)-5-(prop-2-ynylsulfonyl)-1H-1,2,4-triazole] | 88% | 82% |
| C=C(C)Cn1nc(Br)nc1Br [11c, 3,5-dibromo-1-(2-methylallyl)-1H-1,2,4-triazole] | 9% | 19% |
| C=CCSc1nc(C(C)(C)C)n[nH]1 [4c, 3-(allylthio)-5-tert-butyl-1H-1,2,4-triazole] | 57% | 39% |
| C=CCn1nc(Br)nc1Br [11b, 1-allyl-3,5-dibromo-1H-1,2,4-triazole] | 12% | 21% |
| Clc1ccc(-c2nc(SCc3cn(Cc4ccccc4)nn3)n(Cc3cn(Cc4ccccc4)nn3)n2)cc1 [3f, 1-benzyl-4-((1-((1-benzyl-1H-1,2,3-triazol-4-yl)methyl)-3-(4-chlorophenyl)-1H-1,2,4-triazol-5-ylthio)methyl)-1H-1,2,3-triazole] | 31% | 4% |
| C#CCn1nc(C(C)(C)C)nc1SCC=C [8c, 5-(allylthio)-3-tert-butyl-1-(prop-2-ynyl)-1H-1,2,4-triazole] | 98% | 79% |
| c1ccc(Cn2cc(CSc3ncn[nH]3)nn2)cc1 [1a] | 3% | 4% |
| C#CCn1nc(SCC=C)nc1C(C)(C)C [8d, 3-(allylthio)-5-tert-butyl-1-(prop-2-ynyl)-1H-1,2,4-triazole] | 98% | 82% |
| C#CCS(=O)(=O)c1n[nH]c(-c2ccc([N+](=O)[O-])cc2)n1 [7d, 3-(4-nitrophenyl)-5-(prop-2-ynylsulfonyl)-1H-1,2,4-triazole] | 96% | 91% |
| C=CCSc1nc[nH]n1 [4a, 3-allylthio-1H 1,2,4 triazole] | 51% | 32% |
| Cc1nc(SCc2cn(Cc3ccccc3)nn2)nn1Cc1cn(Cc2ccccc2)nn1 [2b, 1-benzyl-4-((1-((1-benzyl-1H-1,2,3-triazol-4-yl)methyl)-5-methyl-1H-1,2,4-triazol-3-ylthio)methyl)-1H-1,2,3-triazole] | 8% | 12% |
| C#CCSc1nc(C)nn1CC=C [10a, 1-allyl-3-methyl-5-(prop-2-ynylthio)-1H-1,2,4-triazole] | 98% | 93% |
| C#CCSc1nc(C(C)(C)C)nn1CC=C [8a, 1-allyl-3-tert-butyl-5-(prop-2-ynylthio)-1H-1,2,4-triazole] | 76% | 74% |
| C#CCS(=O)(=O)c1n[nH]c(C)n1 [7b, 3-methyl-5-(prop-2-ynylsulfonyl)-1H-1,2,4-triazole] | 92% | 82% |
| c1ccc(Cn2cc(CSc3ncnn3Cc3cn(Cc4ccccc4)nn3)nn2)cc1 [3a, 1-benzyl-4-((1-((1-benzyl-1H-1,2,3-triazol-4-yl)methyl)-1H-1,2,4-triazol-5-ylthio)methyl)-1H-1,2,3-triazole] | 8% | 3% |
| C#CCSc1nc(C(C)(C)C)n(CC=C)n1 [8b, 1-allyl-5-tert-butyl-3-(prop-2-ynylthio)-1H-1,2,4-triazole] | 96% | 91% |
| C=CCSc1nc(-c2ccc(Cl)cc2)nn1CC=C [6f, 1-allyl-5-(allylthio)-3-(4-chlorophenyl)-1H-1,2,4-triazole] | 26% | 14% |
| C#CCS(=O)(=O)c1n[nH]c(-c2ccc(Cl)cc2)n1 [7f, 3-(4-chlorophenyl)-5-(prop-2-ynylsulfonyl)-1H-1,2,4-triazole] | 88% | 86% |
